Results on 2 compounds are retold here after patent US20230097707A1, “METHODS AND ARTICLES FOR KEEPING FOOD FRESHER FOR LONGER AND SHELF-LIFE EXTENSION TO ENHANCE FOOD SECURITY AND SAFETY” (priority 2021, published 2023).

As a reminder, the inhibition is the drop in the measured response relative to a control, in per cent.

Series [1] is described as follows: small animal oral toxicity test. In kind it is in vivo. The note with it: albino rat, aqueous solutions derived from concentrate (EPA/MRID). From the text: Example 1 is a small animal oral toxicity test of 3-(tri-methoxysilyl)propyldimethyl octadecyl ammonium chloride in aqueous solutions derived from concentrate. The small animal was an albino rat (EPA/MRID.) The result acute oral LD50 at 12.27 g (grams) per kg (kilogram.) That is, the lethal dose in 50% of the test subjects 12.27 grams per kilogram of body weight. This translates to a 100 kg person ingesting 1.227 kg of the raw material (or 1723 liters) at one time. The monomer poses no ingestion hazard.

Series [2] deals with Staphylococcus aureus ATCC 6538. To be noted: coated paper, 0.15% by weight of BKC; cited from earlier work.
For series [3], the system named is Escherichia coli ATCC 8739. The note with it: coated paper, 0.15% by weight of BKC; cited from earlier work.

Turning to `CCCCCCCCCCCCCCCCCC[N+](C)(C)CCC[Si](OC)(OC)OC.[Cl-]` [1-Octadecanaminium, N,N-dimethyl-N-[3-(trimethoxysilyl)propyl]-, chloride (1:1)], in series [1], the “acute oral LD50” value was 12.27 g (grams) per kg (kilogram.).
Consider “N-Alkyl-N-benzyl-N,N-dimethylammonium chloride [BKC]”, for which the inhibition in series [2] and in series [3] was around 100% each time.
